# Test results from patent US20180296456A1, “Decapeptide-12 Modulation of Sirtuin Gene Expression in Epidermal Keratinocyte Progenitors” (Escape Therapeutics, Inc., priority 2017, published 2018).
# Ends that are not written are not given here. Peptide text beside a SMILES is read from it.
# Key:
# [1] = test system: patients with dyschromia; conditions: topical cream containing 0.01 percent, twice daily for 8 weeks; cited from earlier work
# [2] = test system: SIRT5; experiment: SIRT5 transcription, semi-quantitative RT-PCR in human epidermal progenitors; assay type: cell-based; conditions: 72 h
# Procedure: Human neonatal epidermal progenitors (Thermo Fisher Scientific, NY) were seeded in 6-well plates at a density of 2×10^5 cells/well. Each well received 2 ml of Epilife media containing 60 μM calcium chloride (Thermo Fisher Scientific, NY). Plates were incubated in a humidified chamber at 37 degrees Celsius and 5 percent CO2. Twenty-four hours later, cells were treated with various concentrations of oxyresveratrol or decapeptide-12 dissolved in PBS containing 5 percent DMSO. Control wells received vehicle only (5 percent DMSO and PBS). Final concentration of DMSO in each well was 0.05 percent.
# After a 72 hour incubation period, cells were trypsinized and total RNA extracted, using RNeasy kit (Qiagen, Valencia, Calif.) according to the manufacturer's protocol.
# RNA concentration was determined using nanodrop (Thermo fisher scientific, NY). Two μg of total RNA were used to synthesize cDNA using oligo dT primers and TaqMan reverse transcription reagents (Thermo fisher scientific, NY). The reaction was carried out in DNA Engine Peltier Thermal Cycler (Bio-Rad, Hercules, Calif.). The annealing temperature was 25 degrees Celsius for 10 minutes, followed by first strand synthesis at 48 degrees Celsius for 1 hour, and heat inactivation at 95 degrees Celsius for 5 minutes.
# The SIRT1-7 primers (table 1) were designed using Primer3. The semi-quantitative PCR reactions were performed on a DNA Engine Peltier Thermo Cycler (Bio-Rad, Hercules, Calif.). PCR was carried under the following conditions: denaturation at 94 degrees Celsius for 2 minutes and primer extension at 54 degrees Celsius for 30 seconds in 34 cycles for SIRT 1-7 and the housekeeping gene 18S.
# Samples were run and resolved on a 1.5 percent agarose gel containing 0.5 μg/ml of ethidium bromide and imaged using the FluorChem HD2 Imaging System (Protein simple, San Jose, Calif.). Densitometry analysis was carried out using the AlphaEase FC software (Protein simple, San Jose, Calif.). Intensity ratios were calculated as the intensity value for each gene divided by the intensity value of the internal control gene 18S.
# The effect of the decapeptides P4, P4A, P4B, and P4C upon the transcription levels of sirtuins 1-7 was evaluated. Table 4 summarizes transcription levels for all four decapeptides with the corresponding genes, at tested concentrations of: 10, 30, 50, 100, and 300 (all in μM).
# [3] = Trypan blue cell viability, 7 days, fibroblasts; assay type: cell-based; conditions: human, relative to control, read-out: fibroblast viability after 7 days
# Procedure: (§1) The effect of each of the decapeptides upon cell viability was also tested. In particular, cells were incubated with the decapeptide at various concentrations and then counted for viability relative to the control (untreated cells) using trypan blue. Cytotoxicity was measured according to the following formula:
# (§2) [1−(# of cells in control−# of live cells in test sample)/# of cells in control]×100 percent.
# [4] = Trypan blue cell viability, 7 days, epidermal progenitors; assay type: cell-based; conditions: human, relative to control, read-out: epidermal progenitor viability after 7 days
# Procedure: as §1, §2
# [5] = Trypan blue cell viability, 7 days, melanoblasts; assay type: cell-based; conditions: human, relative to control, read-out: melanoblast viability after 7 days
# Procedure: as §1, §2
# [6] = test system: human epidermal progenitors; experiment: Trypan blue dye exclusion cytotoxicity assay, 72 h, epidermal progenitors; assay type: cell-based; conditions: human epidermal progenitors; for cell death: 72 h, trypan blue
# Procedure: Cellular toxicity was measured using a trypan blue dye exclusion assay. Cells were cultured in 6-well plates at a density of 4×10^5 cells/well. Each well received a different concentration of decapeptide-12 or oxyresveratrol (0, 3, 10, 30, 100, 300, and 1000 μM). Plates were incubated at 37 degrees Celsius in a humidified 5 percent CO2 chamber. After 72 h, an aliquot was taken and cells counted using a hemacytometer. Cytotoxicity was measured according to the following formula: [1−(# of cells in control−# of live cells in test sample)/# of cells in control]×100 percent.
# [7] = test system: human skin; conditions: previously reported; cited from earlier work
compound,measurement,setting,value
"YRSRKYSSWY [decapeptide-12, YRSRKYSSWY]",facial skin appearance,[1],overall improvement in facial skin appearance
same,SIRT5 transcription increase relative to control,[2]; 3 μM,3 ± 1%
same,SIRT5 transcription increase relative to control,[2]; 10 μM,5.2 ± 3%^
same,SIRT5 transcription increase relative to control,"[2]; 10 μM, listed as P4",5 ± 3%
same,SIRT5 transcription increase relative to control,[2]; 30 μM,21 ± 6.7%
same,SIRT5 transcription increase relative to control,"[2]; 30 μM, listed as P4",21 ± 7%
same,SIRT5 transcription increase relative to control,[2]; 50 μM,33.1 ± 6.1%
same,SIRT5 transcription increase relative to control,"[2]; 50 μM, listed as P4",33 ± 6%
same,SIRT5 transcription increase relative to control,"[2]; 100 μM, listed as Deca",46 ± 7.3%
same,SIRT5 transcription increase relative to control,"[2]; 100 μM, listed as P4",46 ± 7%
same,SIRT5 transcription increase relative to control,[2]; 300 μM,67 ± 9.3%
same,SIRT5 transcription increase relative to control,"[2]; 300 μM, listed as P4",67 ± 9%
same,SIRT5 transcription increase relative to control,[2]; 500 μM,87.4 ± 15.1%
same,SIRT5 transcription increase relative to control,[2]; 1000 μM,92.1 ± 16.8%
same,"viability at 168 h, 3 µM",[3],100%
same,"viability at 168 h, 10 µM",[3],98.6 ± 1%
same,"viability at 168 h, 30 µM",[3],98.2 ± 1%
same,"viability at 168 h, 50 µM",[3],97.8 ± 1%
same,"viability at 168 h, 100 µM",[3],97.2 ± 1%
same,"viability at 168 h, 300 µM",[3],95.6 ± 2%
same,"viability at 168 h, 500 µM",[3],94.5 ± 2%
same,"viability at 168 h, 1000 µM",[3],93.8 ± 1%
same,"viability at 168 h, 3 µM",[4],100%
same,"viability at 168 h, 10 µM",[4],99 ± 1%
same,"viability at 168 h, 30 µM",[4],98.4 ± 1%
same,"viability at 168 h, 50 µM",[4],97.8 ± 1%
same,"viability at 168 h, 100 µM",[4],97.1 ± 1%
same,"viability at 168 h, 300 µM",[4],95.6 ± 2%
same,"viability at 168 h, 500 µM",[4],94.2 ± 2%
same,"viability at 168 h, 1000 µM",[4],93.8 ± 2%
same,"viability at 168 h, 3 µM",[5],100%
same,"viability at 168 h, 10 µM",[5],99 ± 1%
same,"viability at 168 h, 30 µM",[5],98.3 ± 1%
same,"viability at 168 h, 50 µM",[5],98 ± 1%
same,"viability at 168 h, 100 µM",[5],97.3 ± 1%
same,"viability at 168 h, 300 µM",[5],95.2 ± 2%
same,"viability at 168 h, 500 µM",[5],94.6 ± 2%
same,"viability at 168 h, 1000 µM",[5],94 ± 2%
same,cell death,[6]; 100 μM,3±1%
same,cell death,[6]; 1 mM,7±2%
same,cytotoxicity compared with oxyresveratrol,[6],reduced cytotoxicity
same,hypopigmenting efficacy,[7],potent hypopigmenting efficacy
"CCCCCCCCCCCCCCCC(=O)N[C@@H](Cc1ccc(O)cc1)C(=O)N[C@@H](CCCNC(=N)N)C(=O)N[C@@H](CO)C(=O)N[C@@H](CCCNC(=N)N)C(=O)N[C@@H](CCCCN)C(=O)N[C@H](Cc1ccc(O)cc1)C(=O)N[C@@H](CO)C(=O)N[C@@H](CO)C(=O)N[C@@H](Cc1c[nH]c2ccccc12)C(=O)N[C@@H](Cc1ccc(O)cc1)C(N)=O [P4B, Palmitoyl-YRSRK[*Y]SSWY-amide] (HELM PEPTIDE1{[CCCCCCCCCCCCCCCC(=O)[*:2]].Y.R.S.R.K.[dY].S.S.W.Y.[am]}$$$$V2.0)",SIRT5 transcription increase relative to control,[2]; 10 μM,2.00%
same,SIRT5 transcription increase relative to control,[2]; 30 μM,1.00%
same,SIRT5 transcription increase relative to control,[2]; 50 μM,1.00%
same,SIRT5 transcription increase relative to control,[2]; 100 μM,35 ± 3%
same,SIRT5 transcription increase relative to control,[2]; 300 μM,29 ± 5%
same,"viability at 168 h, 3 µM",[3],100%
same,"viability at 168 h, 10 µM",[3],98.8 ± 1%
same,"viability at 168 h, 30 µM",[3],98.3 ± 1%
same,"viability at 168 h, 50 µM",[3],97.6 ± 1%
same,"viability at 168 h, 100 µM",[3],97.3 ± 2%
same,"viability at 168 h, 300 µM",[3],96.5 ± 2%
same,"viability at 168 h, 500 µM",[3],95.3 ± 3%
same,"viability at 168 h, 1000 µM",[3],94.2 ± 3%
same,"viability at 168 h, 3 µM",[4],100%
same,"viability at 168 h, 10 µM",[4],99 ± 1%
same,"viability at 168 h, 30 µM",[4],98.2 ± 1%
same,"viability at 168 h, 50 µM",[4],98 ± 1%
same,"viability at 168 h, 100 µM",[4],97 ± 1%
same,"viability at 168 h, 300 µM",[4],96.5 ± 2%
same,"viability at 168 h, 500 µM",[4],95.5 ± 2%
same,"viability at 168 h, 1000 µM",[4],94.5 ± 2%
same,"viability at 168 h, 3 µM",[5],100%
same,"viability at 168 h, 10 µM",[5],98.5 ± 1%
same,"viability at 168 h, 30 µM",[5],97.8 ± 3%
same,"viability at 168 h, 50 µM",[5],97.2 ± 2%
same,"viability at 168 h, 100 µM",[5],96.3 ± 2%
same,"viability at 168 h, 300 µM",[5],95.6 ± 2%
same,"viability at 168 h, 500 µM",[5],94.6 ± 2%
same,"viability at 168 h, 1000 µM",[5],93.8 ± 2%
"Ac-YRSRKYSSWY-NH2 [P4C, Acetyl-YRSRKYSSWY-amide]",SIRT5 transcription increase relative to control,[2]; 10 μM,4 ± 1%
same,SIRT5 transcription increase relative to control,[2]; 30 μM,2 ± 1%
same,SIRT5 transcription increase relative to control,[2]; 50 μM,3 ± 1%
same,SIRT5 transcription increase relative to control,[2]; 100 μM,35 ± 2%
same,SIRT5 transcription increase relative to control,[2]; 300 μM,28 ± 9%
same,"viability at 168 h, 3 µM",[3],100%
same,"viability at 168 h, 10 µM",[3],98.9 ± 1%
same,"viability at 168 h, 30 µM",[3],98.3 ± 1%
same,"viability at 168 h, 50 µM",[3],97.8 ± 1%
same,"viability at 168 h, 100 µM",[3],97.4 ± 2%
same,"viability at 168 h, 300 µM",[3],96.5 ± 2%
same,"viability at 168 h, 500 µM",[3],95.7 ± 2%
same,"viability at 168 h, 1000 µM",[3],94.9 ± 3%
same,"viability at 168 h, 3 µM",[4],100%
same,"viability at 168 h, 10 µM",[4],99 ± 1%
same,"viability at 168 h, 30 µM",[4],98 ± 1%
same,"viability at 168 h, 50 µM",[4],97.4 ± 1%
same,"viability at 168 h, 100 µM",[4],96.6 ± 2%
same,"viability at 168 h, 300 µM",[4],95.7 ± 3%
same,"viability at 168 h, 500 µM",[4],94.8 ± 3%
same,"viability at 168 h, 1000 µM",[4],94 ± 3%
same,"viability at 168 h, 3 µM",[5],100%
same,"viability at 168 h, 10 µM",[5],99 ± 1%
same,"viability at 168 h, 30 µM",[5],98.4 ± 1%
same,"viability at 168 h, 50 µM",[5],97.9 ± 1%
same,"viability at 168 h, 100 µM",[5],97 ± 2%
same,"viability at 168 h, 300 µM",[5],96 ± 3%
same,"viability at 168 h, 500 µM",[5],95.5 ± 3%
same,"viability at 168 h, 1000 µM",[5],94.8 ± 3%
